Data: PMC5324734, “DOTA-Derivatives of Octreotide Dicarba-Analogs with High Affinity for Somatostatin sst2,5 Receptors” (Frontiers in Chemistry, 2017)
Where “and” joins values, the source holds several entries; their conditions need not be identical. Equal entries are not always repeated. Where two headings read alike, the source gives them in different places. Where a SMILES comes first, the peptide text is derived from it. Bridges are numbered along the chain shown (N, C = ends). [ ]: non-standard residue; d: D form. The star is where a group is joined. DOTA = O=C(O)CN1CCN(CC(=O)O)CCN(CC(=O)*)CCN(CC(=O)O)CC1; 1Nal = N[C@@H](Cc1cccc2ccccc12)C(=O)O; Thr(ol) = C[C@@H](O)[C@H](N)CO; AllylGly = C=CC[C@H](N)C(=O)O; Bn = c1ccc(C*)cc1

Assays:
sst5 receptor [1] = molecular target: T1, sst5 receptor (Homo sapiens, UniProt P35346); design: method as in Di Cianni et al., 2010; conditions: free (unconjugated) dicarba-analogs; mean ± SEM; data published previously; ref Di Cianni et al., 2010; cited from earlier work
T1 construct: host or cells: CHO cells (membrane pellets)
T1 sequence (P35346 whole entry): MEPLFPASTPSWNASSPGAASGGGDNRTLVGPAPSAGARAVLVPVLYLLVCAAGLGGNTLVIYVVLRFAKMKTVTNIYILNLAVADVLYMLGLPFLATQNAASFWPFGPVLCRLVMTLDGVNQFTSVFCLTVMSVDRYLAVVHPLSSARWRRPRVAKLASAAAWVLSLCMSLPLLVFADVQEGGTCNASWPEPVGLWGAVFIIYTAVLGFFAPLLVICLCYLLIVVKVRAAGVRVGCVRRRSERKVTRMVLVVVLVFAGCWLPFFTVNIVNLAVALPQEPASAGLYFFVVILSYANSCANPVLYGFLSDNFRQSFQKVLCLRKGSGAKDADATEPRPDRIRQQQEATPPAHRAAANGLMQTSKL

sst2 receptor [2] = molecular target: T2, sst2 receptor (Homo sapiens, UniProt P30874); design: method as in Di Cianni et al., 2010; conditions: free (unconjugated) dicarba-analogs; mean ± SEM; data published previously; ref Di Cianni et al., 2010; cited from earlier work
T2 construct: Cell membrane pellets were prepared from human sst2-expressing endogeneous IMR32 cells; host or cells: IMR32 cells (membrane pellets)
T2 sequence (P30874 whole entry): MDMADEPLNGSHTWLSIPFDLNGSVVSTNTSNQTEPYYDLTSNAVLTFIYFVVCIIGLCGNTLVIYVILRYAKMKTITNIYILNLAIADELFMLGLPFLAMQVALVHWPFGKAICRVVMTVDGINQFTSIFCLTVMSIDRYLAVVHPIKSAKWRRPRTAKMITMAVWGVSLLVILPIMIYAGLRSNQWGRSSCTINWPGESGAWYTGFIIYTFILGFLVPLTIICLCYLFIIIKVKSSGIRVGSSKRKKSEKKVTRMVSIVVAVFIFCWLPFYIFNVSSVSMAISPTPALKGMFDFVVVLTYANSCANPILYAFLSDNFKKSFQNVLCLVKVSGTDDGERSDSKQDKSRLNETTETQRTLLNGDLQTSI

[3] = native hormone; ref Weckbecker et al., 2003; cited from earlier work
Source text: Radiolabeled peptides, targeting specific receptors of malignant cells, in primis GPCRs, have emerged in the past years as one of the most promising tools for diagnosis and therapy of several kinds of metastatic tumors which express these receptors (Ramogida and Orvig, [2013]). Somatostatins SRIF-14 and SRIF-28 are peptide hormones, which have a wide range of pharmacological actions on exocrine and endocrine secretions (Brazeau et al., [1973]) mediated by direct interaction with at least five GPCRs. Chemically, they are -S-S- bridged cyclic peptides containing 14 and 28 amino acids, respective ...

sst2 receptor [4] = molecular target: T2, sst2 receptor; experiment: Somatostatin receptor affinity, displacement of 125I-[LTT]-SRIF-28 (sst2); assay type: binding; conditions: complete displacement of [Leu8,D-Trp22,125I-Tyr25]-SRIF-28; cell membrane pellets from human sst2-expressing endogeneous IMR32 cells; CEREP; mean ± SEM of three independent repetitions
Description: (§1) Determination of Somatostatin receptors affinity was performed at CEREP (Le Bois l'Evêque, B. P. 3,001, 86,600 Celle l'Evescault, France). Cell membrane pellets were prepared from human sst2-expressing endogeneous IMR32 cells, and sst5-expressing human CHO cells. For each of the tested compounds, complete displacement experiments with the universal SRIF radio-ligand [Leu^8, D-Trp^22, ^125I-Tyr^25]-SRIF-28 (125I-[LTT]-SRIF-28) (2000 Ci/mmol; Anawa, Wangen, Switzerland) were performed. As control, unlabeled seglitide and SRIF-14 were run in parallel, using the same increasing concentrations, with sst2 and sst5 subtypes, respectively. IC50 values were calculated by non-linear regression analysis of the competition curves generated with mean replicate values using Hill equation curve. The analysis was performed using software developed at CEREP (Hill software) and validated by comparison with data generated by the commercial software SigmaPlot 4.0 for Windows.
(§2) The three DOTA conjugated compounds 3b, 4b, and 5b were tested for their ability to bind to the sst2 and sst5 receptors subtypes in complete displacement experiments using the universal somatostatin radioligand [^125I]-[Leu^8,D-Trp^22,Tyr^25]-somatostatin-28. IC50 values were calculated after quantification of the data using a computer-assisted image processing system (Table 1). Receptor subtypes sst2 and sst5 were chosen for preliminary binding assays because of their overexpression in some tumor types (Miller et al., [1995]). In Table 1, the affinities of the parent unconjugated compounds 3a, 4a, and 5a are also reported for comparison (Di Cianni et al., [2010]).

sst5 receptor [5] = molecular target: T1, sst5 receptor; experiment: Somatostatin receptor affinity, displacement of 125I-[LTT]-SRIF-28 (sst5); assay type: binding; conditions: complete displacement of [Leu8,D-Trp22,125I-Tyr25]-SRIF-28; cell membrane pellets from sst5-expressing human CHO cells; CEREP; mean ± SEM of three independent repetitions
Description: as §1, §2

| IC50 (sst2 receptor [4]) | IC50 (sst5 receptor [5]) | Compound | IC50 (sst5 receptor [1]) | IC50 (sst2 receptor [2]) | in vivo half-life [3] |
| --- | --- | --- | --- | --- | --- |
|  |  | C[C@@H](O)[C@@H](CO)NC(=O)[C@@H]1C/C=C\C[C@H](NC(=O)[C@H](N)Cc2ccccc2)C(=O)N[C@@H](Cc2cccc3ccccc23)C(=O)N[C@H](Cc2c[nH]c3ccccc23)C(=O)N[C@@H](CCCCN)C(=O)N[C@@H](Cc2ccc(OCc3ccccc3)cc2)C(=O)N1 [Compound 5a] (H-[dF][AllylGly][1Nal][dW]KY(Bn)[AllylGly][Thr(ol)]; staple (Z) 2-7) | 4.9 ± 1 nM | 101 ± 9 nM |  |
|  |  | C[C@@H](O)[C@@H]1NC(=O)[C@H](CCCCN)NC(=O)[C@@H](Cc2c[nH]c3ccccc23)NC(=O)[C@H](Cc2cccc3ccccc23)NC(=O)[C@@H](NC(=O)[C@H](N)Cc2ccccc2)C/C=C\C[C@@H](C(=O)N[C@H](CO)[C@@H](C)O)NC1=O [Compound 3a] (H-[dF][AllylGly][1Nal][dW]KT[AllylGly][Thr(ol)]; staple (Z) 2-7) | 16.5 ± 4.5 nM | 9.6 ± 0.9 nM |  |
|  |  | SRIF-14: native somatostatin peptide hormone, -S-S- bridged cyclic peptide containing 14 amino acids |  |  | < 3 min |
| > 100 nM and 160 nM | 12 ± 2.6 nM | C[C@@H](O)[C@@H](CO)NC(=O)[C@@H]1C/C=C\C[C@H](NC(=O)[C@@H](Cc2ccccc2)NC(=O)CN2CCN(CC(=O)O)CCN(CC(=O)O)CCN(CC(=O)O)CC2)C(=O)N[C@@H](Cc2cccc3ccccc23)C(=O)N[C@H](Cc2c[nH]c3ccccc23)C(=O)N[C@@H](CCCCN)C(=O)N[C@@H](Cc2ccc(OCc3ccccc3)cc2)C(=O)N1 [Compound 5b] ({DOTA}-[dF][AllylGly][1Nal][dW]KY(Bn)[AllylGly][Thr(ol)]; staple (Z) 2-7) |  |  |  |
| 61 ± 5.4 nM | 130 ± 7 nM | C[C@@H](O)[C@@H]1NC(=O)[C@H](CCCCN)NC(=O)[C@@H](Cc2c[nH]c3ccccc23)NC(=O)[C@H](Cc2cccc3ccccc23)NC(=O)[C@@H](NC(=O)[C@@H](Cc2ccccc2)NC(=O)CN2CCN(CC(=O)O)CCN(CC(=O)O)CCN(CC(=O)O)CC2)C/C=C\C[C@@H](C(=O)N[C@H](CO)[C@@H](C)O)NC1=O [Compound 3b] ({DOTA}-[dF][AllylGly][1Nal][dW]KT[AllylGly][Thr(ol)]; staple (Z) 2-7) |  |  |  |
|  |  | C[C@@H](O)[C@@H](CO)NC(=O)[C@@H]1C/C=C\C[C@H](NC(=O)[C@H](N)Cc2ccccc2)C(=O)N[C@@H](Cc2ccccc2)C(=O)N[C@H](Cc2c[nH]c3ccccc23)C(=O)N[C@@H](CCCCN)C(=O)N[C@@H](Cc2ccc(OCc3ccccc3)cc2)C(=O)N1 [Compound 4a] (H-[dF][AllylGly]F[dW]KY(Bn)[AllylGly][Thr(ol)]; staple (Z) 2-7) | 12.3 ± 0.3 nM | 46 ± 3 nM |  |
| > 300 nM | 91 ± 7.8 nM | C[C@@H](O)[C@@H](CO)NC(=O)[C@@H]1C/C=C\C[C@H](NC(=O)[C@@H](Cc2ccccc2)NC(=O)CN2CCN(CC(=O)O)CCN(CC(=O)O)CCN(CC(=O)O)CC2)C(=O)N[C@@H](Cc2ccccc2)C(=O)N[C@H](Cc2c[nH]c3ccccc23)C(=O)N[C@@H](CCCCN)C(=O)N[C@@H](Cc2ccc(OCc3ccccc3)cc2)C(=O)N1 [Compound 4b] ({DOTA}-[dF][AllylGly]F[dW]KY(Bn)[AllylGly][Thr(ol)]; staple (Z) 2-7) |  |  |  |
